Like-named read-outs stand apart in the source and are kept apart here. One block for each compound: values may come before it.
Tests used:
[1] = biological target: mushroom tyrosinase; parameters: method as in PMID 20638280; details: standard inhibitor; cited from earlier work
[2] = biological target: mushroom tyrosinase; assay: Mushroom tyrosinase enzyme assay with L-DOPA as substrate (475 nm); details: for IC50: L-DOPA oxidation, pH 6.8, 30 °C, mean of triplicate determinations ± standard deviation; for inhibitory activity against tyrosinase: result in words
Description: Firstly, the effect of the Q1compound against the tyrosinase activity was evaluated.
We measured enzyme assay with L-DOPA as the substrate. We determined enzyme activity at 475 nm in the spectrophotometric experiments. We dissolved the test compounds in DMSO at 1 mM, which was diluted to the required concentration (0, 15, 30, 60, 120, 180, 240, 300 μM). We measured the reaction solution (3 mL), consisting 0.75 mL sodium phosphate buffer (0.1 M, pH 6.8), 1.8 mL H2O, 0.3 mL L-DOPA (2 mM), 0.1 mL test compound, and 0.05 mL enzyme (0.2 mg /L), at 30 °C. We replaced test samples as control. We determined each concentration in three experiments. We used the concentration that inhibited half of the enzyme activity (IC50) to measure the inhibitory effect of inhibitor. We investigated kinetic parameters with increasing concentrations of L-DOPA and test samples by the Lineweaver–Burk double-reciprocal plot and Dixon plot methods. We calculated the % inhibition of tyrosinase as follows: Inhibition (%) = [1 − B/A]/100, where the A and B are the absorbances of the blank control and samples, respectively.

[3] = test system: mushroom tyrosinase; assay: Fluorescence quenching of mushroom tyrosinase; type: binding; details: Q1 at 36 μM; excitation 290 nm, emission peak 333 nm
Description: The intrinsic interaction mechanisms of Q1 on the tyrosinase were investigated by the fluorescence quenching analysis. The fluorescence emission spectrum was recorded as ranging from 310 to 550 nm at a 290 nm excitation wavelength. […] However, the fluorescence intensity of tyrosinase reduced gradually as the concentration of the citral derivative increased.
(§1) We used fluorescence analysis (Varian Cary Eclipse fluorescence spectrophotometer) to perform fluorescence experiment, and set the excitation wavelength at 290 nm. We mixed inhibitor solution, substrates of tyrosine/L-DOPA or enzyme solution, and sodium phosphate buffer (pH 6.8) at the volumetric ratio of 1:1:8 (v/v/v).

[4] = Fluorescence quenching of tyrosine; type: binding; details: Q1 from 0 to 36 μM; intensity 447.6 to 216.5
Description: We also investigated the fluorescence quenching Q1 experiment regarding tyrosine activity, and recorded the fluorescence intensity of tyrosine in the range of […]. […] Thus, the compound was also a good binding agent for tyrosine in a dose-dependent manner.
as §1

[5] = test system: mushroom tyrosinase; assay: Kinetic studies of tyrosinase inhibition (enzyme concentration plots, Lineweaver-Burk plots); type: biochemical
Description: To ascertain the inhibition type and mechanism of Q1, we studied the relationship between the enzyme concentration and the remaining enzyme activity with various concentrations of Q1 (0, 15, 60, and 120 μM).
Different concentrations of the compound Q1 (0, 15, 60, and 120 μM) were applied to inhibit tyrosinase and obtain the kinetic behavior of tyrosinase catalysis. Lineweaver–Burk reciprocal plots were used to investigate the inhibition modes of Q1 on mushroom tyrosinase. […] Thus, Q1 could bind not only to the free enzymes but also to the enzyme–substrate complexes. […] Additionally, the value of KIS was measured to be 423.63 μM from the concentrations of the compound versus the vertical intercept.
We purchased mushroom tyrosinase (with specific activity 6680 U/mg), and L-3,4-dihydroxyphenyl-alanine (L-DOPA) from Sigma (St. Louis, MO, USA). We measured enzyme assay with L-DOPA as the substrate. We determined enzyme activity at 475 nm in the spectrophotometric experiments. We dissolved the test compounds in DMSO at 1 mM, which was diluted to the required concentration (0, 15, 30, 60, 120, 180, 240, 300 μM). We measured the reaction solution (3 mL), consisting 0.75 mL sodium phosphate buffer (0.1 M, pH 6.8), 1.8 mL H2O, 0.3 mL L-DOPA (2 mM), 0.1 mL test compound, and 0.05 mL enzyme (0.2 mg /L), at 30 °C. We replaced test samples as control. We determined each concentration in three experiments. We used the concentration that inhibited half of the enzyme activity (IC50) to measure the inhibitory effect of inhibitor. We investigated kinetic parameters with increasing concentrations of L-DOPA and test samples by the Lineweaver–Burk double-reciprocal plot and Dixon plot methods. We calculated the % inhibition of tyrosinase as follows: Inhibition (%) = [1 − B/A][…], where the A and B are the absorbances of the blank control and samples, respectively.

[6] = Fluorescence quenching of L-DOPA; type: binding; details: Q1 from 0 to 36 μM; intensity 1619 to 879.9
Description: Finally, the fluorescence emission spectra of L-DOPA were tested in the solutions of Q1 with various concentrations. […] Similarly, the fluorescence emission intensity of Q1 disappeared when it was added to the solution. The results inferred that Q1 was also a good L-DOPA binding agent.
as §1

Compound: OC[C@H]1O[C@@H](Oc2ccc(O)cc2)[C@H](O)[C@@H](O)[C@@H]1O [arbutin]
IC50 [1]: 180 µM

Compound: CC(C)=CCCC(C)=Cc1nc2cc(C)ccc2c(=O)[nH]1 [Compound Q4, 2-(2,6-dimethylhepta-1,5-dien-1-yl)-7-methylquinazolin-4(3H)-one]
melting point: 188 to 192 °C | IC50 [2]: 253 ± 2 µM

Compound: CC(C)=CCCC(C)=Cc1nc2ccccc2c(=O)[nH]1 [Compound Q1, 2-(2,6-dimethylhepta-1,5-dien-1-yl)quinazolin-4(3H)-one]
relative fluorescence intensity of tyrosinase [3]: 39.45% | decrease of fluorescence intensity of tyrosine [4]: 51.63% | inhibition type ([5]; Lineweaver-Burk plots, Q1 at 0, 15, 60, 120 μM): mixed inhibition type | reversibility of inhibition ([5]; enzyme activity versus enzyme concentration, Q1 at 0, 15, 60, 120 μM): reversible | KIS ([5]; enzyme-substrate complex, from vertical intercept versus compound concentration): 423.63 µM | Ki ([5]; free enzyme, from plots of slope versus compound concentration, read-out: inhibitor constant (KI)): 117 µM | IC50 [2]: 103 ± 2 µM | decrease of fluorescence intensity of L-DOPA [6]: 45.65%

Compound: CC(C)=CCCC(C)=Cc1nc2cccc(F)c2c(=O)[nH]1 [Compound Q2, 2-(2,6-dimethylhepta-1,5-dien-1-yl)-5-fluoroquinazolin-4(3H)-one]
melting point: 189 to 191 °C | IC50 [2]: 105 ± 1 µM

The remaining lines, values ahead:

inhibitory activity against tyrosinase [2]: did not exhibit inhibitory activity
Compound: Cc1ccc(-c2nc3ccccc3c(=O)[nH]2)cc1 [Compound Q6, 2-(p-tolyl)quinazolin-4(3H)-one]

melting point: 190 to 192 °C | IC50 [2]: 168 ± 2 µM
Compound: CC(C)=CCCC(C)=Cc1nc2ccc(Cl)cc2c(=O)[nH]1 [Compound Q3, 6-chloro-2-(2,6-dimethylhepta-1,5-dien-1-yl)quinazolin-4(3H)-one]

inhibitory activity against tyrosinase [2]: did not exhibit inhibitory activity
Compound: COc1ccc(-c2nc3ccccc3c(=O)[nH]2)cc1 [Compound Q7, 2-(4-methoxyphenyl)quinazolin-4(3H)-one]

From publication PMC9457556, “Newly Designed Quinazolinone Derivatives as Novel Tyrosinase Inhibitor: Synthesis, Inhibitory Activity, and Mechanism” (Molecules, 2022)
